Experimental data reported in US7141383B2, “EDG8 receptor, its preparation and use” (Sanofi-Aventis Deutschland GmbH, priority 2000, dated 2006).

Legend:
EDG1 receptor = EDG1 receptor (Homo sapiens, UniProt P21453); test: FLIPR intracellular Ca2+ mobilization in CHO cells transfected with EDG1; format: cell-based; conditions: transiently transfected CHO cells; 10, 100, 1000 nM
Procedure: (§1) FIGS. 2A–F: Mobilization of intracellular Ca^2+ by S1P (10, 100 and 1000 nM) mediated by the EDG1, 3, 5, 6 and 8 receptor in CHO cells, cotransfected with empty vector DNA as a control or the indicated G-protein α subunits.
(§2) A: S1P-induced Ca^2+-response in CHO cells transfected with vector DNA alone or the G protein α subunits Gq, G16 and Gqi5. B-F: S1P-induced Ca^2+-response in CHO cells transfected with the indicated EDG-receptor subtypes. Agonist-mediated changes of intracellular Ca^2+ were measured with the FLIPR using the Ca^2+-sensitive dye FLUO4 as described in Experimental procedures. Fluorescence of transfected cells loaded with FLUO4 was recorded before and after addition of S1P, applied in the indicated concentrations. Data are expressed as means of quadruplicate determinations in a single experiment.
(§3) CHO-K1 cells were grown in basal ISCOVE medium supplemented with 10% fetal bovine serum at 37° C. in a humidified 5% CO2 incubator. For transfections, 2×10^5 cells were seeded into 35-mm dishes. About 24 hr later cells were transiently transfected at 50–80% confluency with the indicated receptor and G-protein constructs (1 μg of plasmid DNA each) using the Lipofectamine transfection reagent and the supplied protocol (GIBCO). […]

EDG5 receptor = target: T1, EDG5 receptor (Homo sapiens, UniProt O95136); test: FLIPR intracellular Ca2+ mobilization in CHO cells transfected with EDG5; format: cell-based; conditions: transiently transfected CHO cells; 10, 100, 1000 nM
T1 construct: expressed in transfected cells; host or cells: CHO-K1, transient transfection
T1 sequence (O95136 whole entry): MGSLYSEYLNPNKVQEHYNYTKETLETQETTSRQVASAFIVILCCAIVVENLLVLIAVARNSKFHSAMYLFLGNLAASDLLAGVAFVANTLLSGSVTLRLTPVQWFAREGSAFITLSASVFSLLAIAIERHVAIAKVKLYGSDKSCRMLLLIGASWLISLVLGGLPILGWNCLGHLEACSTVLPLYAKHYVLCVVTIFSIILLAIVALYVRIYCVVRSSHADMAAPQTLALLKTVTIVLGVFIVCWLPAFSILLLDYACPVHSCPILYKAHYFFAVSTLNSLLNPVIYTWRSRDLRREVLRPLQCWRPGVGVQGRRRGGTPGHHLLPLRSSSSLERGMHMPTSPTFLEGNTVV
Procedure: as §1, §2, §3

CHO cells = test: FLIPR intracellular Ca2+ mobilization in CHO cells without EDG receptor (vector or G protein alpha subunits only); format: cell-based, chinese hamster
Procedure: as §1, §2, §3

human EDG8 [1] = target: T2, human EDG8 (Homo sapiens, UniProt Q9H228); test: FLIPR intracellular Ca2+ mobilization in CHO cells transiently transfected with EDG8; format: cell-based; design: The 1197 bp PCR product was cloned into the pCDNA3.1(+) mammalian expression vector; expressed in transfected cells; host or cells: CHO-K1, transient transfection; conditions: for EDG8-mediated increase in intracellular Ca2+ by lysophospholipid mediators: CHO cells transiently transfected with EDG8 and Gα16 or Gαqi5, lipids at 10, 100, 1000 nM
T2 sequence (Q9H228 whole entry): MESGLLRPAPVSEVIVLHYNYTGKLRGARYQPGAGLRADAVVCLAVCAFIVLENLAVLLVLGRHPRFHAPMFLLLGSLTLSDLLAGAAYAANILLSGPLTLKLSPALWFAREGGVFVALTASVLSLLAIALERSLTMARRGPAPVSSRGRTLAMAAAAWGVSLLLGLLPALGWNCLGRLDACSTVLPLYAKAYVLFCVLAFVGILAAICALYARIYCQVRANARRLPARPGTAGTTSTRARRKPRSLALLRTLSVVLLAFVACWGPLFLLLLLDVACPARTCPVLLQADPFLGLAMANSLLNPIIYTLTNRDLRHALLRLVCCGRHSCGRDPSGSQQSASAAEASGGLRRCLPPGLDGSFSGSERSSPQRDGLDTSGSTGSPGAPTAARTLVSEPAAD
Procedure: FIG. 3: Effects of S1P, LPA and related lysophospholipid mediators on EDG8-mediated increase in intracellular Ca^2+. CHO-cells were cotransfected with EDG8 and the G protein α subunits Gqi5 (upper panel) and G16 (lower panel) and rises in [Ca^2+]i were recorded with the FLIPR as described in Experimental procedures. The different lipids were applied in concentrations of 10, 100 and 1000 nM, respectively. Data are means of quadruplicate determinations of a representative experiment.
CHO-K1 cells were grown in basal ISCOVE medium supplemented with 10% fetal bovine serum at 37° C. in a humidified 5% CO2 incubator. For transfections, 2×10^5 cells were seeded into 35-mm dishes. About 24 hr later cells were transiently transfected at 50–80% confluency with the indicated receptor and G-protein constructs (1 μg of plasmid DNA each) using the Lipofectamine transfection reagent and the supplied protocol (GIBCO). 18–24 hr after transfection cells were seeded into 96well plates at a density of 50,000 cells per well and cultured for 18–24 additional hr until used in the functional FLIPR assays.
Twenty-four hours after transfection, cells were splitted into 96-well, black-wall microplates (Corning) at a density of 50,000 cells per well. 18–24 hr later, cells were loaded with 95 μl of HBSS containing 20 mM Hepes, 2.5 mM probenecid, 4 μM fluorescent calcium indicator dye Fluo4 (Molecular Probes) and 1% fetal bovine serum for 1 h (37° C., 5% CO2). Cells were washed three times with HBSS containing 20 mM Hepes and 2.5 mM probenecid in a cell washer. After the final wash, the solution was aspirated to a residual volume of 100 μl per 96 well. Lipid ligands were dissolved in DMSO as 2 mM stock solutions (treated with ultrasound when necessary) and diluted at least 1:100 into HBSS containing 20 mM HEPES, 2.5 mM probenecid and 0.4 mg/ml fatty acid free bovine serum albumine. Lipids were aliquoted as 2× solutions into a 96 well plate prior to the assay. The fluorometric imaging plate reader (FLIPR, Molecular Devices) was programmed to transfer 100 μl from each well of the ligand microplate to each well of the cellplate and to record fluorescence during 3 min in 1 second intervals during the first minute and 3 second intervals during the last two minutes. Total fluorescence counts from the 18-s to 37-s time points are used to determine agonist activity. The instrument software normalizes the fluorescent reading to give equivalent initial readings at time zero.

EDG3 receptor = EDG3 receptor (Homo sapiens, UniProt Q99500); test: FLIPR intracellular Ca2+ mobilization in CHO cells transfected with EDG3; format: cell-based; conditions: transiently transfected CHO cells; 10, 100, 1000 nM
EDG3 receptor, sequence (Q99500 whole entry): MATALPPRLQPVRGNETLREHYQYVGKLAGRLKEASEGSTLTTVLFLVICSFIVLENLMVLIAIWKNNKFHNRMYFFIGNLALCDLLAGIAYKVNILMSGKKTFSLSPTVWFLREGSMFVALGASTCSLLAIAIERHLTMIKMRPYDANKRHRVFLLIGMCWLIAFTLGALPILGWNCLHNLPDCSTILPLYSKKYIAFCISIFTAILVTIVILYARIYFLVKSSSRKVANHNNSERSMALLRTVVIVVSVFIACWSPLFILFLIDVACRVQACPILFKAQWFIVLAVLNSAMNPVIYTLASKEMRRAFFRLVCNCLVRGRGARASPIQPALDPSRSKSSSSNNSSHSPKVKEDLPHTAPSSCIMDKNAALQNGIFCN
Procedure: as §1, §2, §3

EDG6 receptor = EDG6 receptor (Homo sapiens, UniProt O95977); test: FLIPR intracellular Ca2+ mobilization in CHO cells transfected with EDG6; format: cell-based; conditions: absence of any cotransfected G-protein α subunit
EDG6 receptor, sequence (O95977 whole entry): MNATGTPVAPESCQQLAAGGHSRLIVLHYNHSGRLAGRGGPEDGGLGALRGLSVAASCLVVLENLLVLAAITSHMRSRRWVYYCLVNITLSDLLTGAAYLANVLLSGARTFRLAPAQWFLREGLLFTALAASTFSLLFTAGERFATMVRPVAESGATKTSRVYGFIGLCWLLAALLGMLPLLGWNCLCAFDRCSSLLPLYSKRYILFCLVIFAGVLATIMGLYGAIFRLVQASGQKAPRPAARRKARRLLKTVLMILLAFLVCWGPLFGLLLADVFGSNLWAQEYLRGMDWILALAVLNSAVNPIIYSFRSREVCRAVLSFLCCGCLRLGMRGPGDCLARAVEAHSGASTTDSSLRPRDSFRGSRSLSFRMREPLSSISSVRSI
Procedure: as §1, §2, §3

human EDG8 [2] = target: T2, human EDG8; test: Effect of inhibitor alone on [Ca2+]i during preincubation, cells cotransfected with human EDG8 and Gαqi5; format: cell-based; design: The 1197 bp PCR product was cloned into the pCDNA3.1(+) mammalian expression vector; expressed in transfected cells; conditions: 3 minutes, before 1 μM S1P
Procedure: (§4) FIG. 9: Inhibition of S1P mediated intracellular calcium release by suramin and NF023 (8,8′-(carbonylbis(imino-3,1-phenylene))bis-(1,3,5-naphatlenetrisulfonic acid)) in cells transiently cotransfected with human EDG8 and Gαqi5 (A) and rat EDG8 and Gαqi5 (B). […] Cells were then stimulated with 1 μM S1P and in [Ca^2+]i measured with the FLIPR as described in the method section. Peak fluorescence counts were normalized and background responses of Gαqi5-transfected cells were subtracted. S1P-mediated calcium release in the absence of inhibitor was set 100%. Data are means±SE of 4–7 independent experiments.
(§5) Twenty-four hours after transfection, cells were splitted into 96-well, black-wall microplates (Corning) at a density of 50,000 cells per well. […] The fluorometric imaging plate reader (FLIPR, Molecular Devices) was programmed to transfer 100 μl from each well of the ligand microplate to each well of the cellplate and to record fluorescence during 3 min in 1 second intervals during the first minute and 3 second intervals during the last two minutes. Total fluorescence counts from the 18-s to 37-s time points are used to determine agonist activity. The instrument software normalizes the fluorescent reading to give equivalent initial readings at time zero.

rat EDG8 = target: T3, rat EDG8 (Rattus norvegicus, UniProt Q9JKM5); test: Effect of inhibitor alone on [Ca2+]i during preincubation, cells cotransfected with rat EDG8 and Gαqi5; format: cell-based; conditions: 3 minutes, before 1 μM S1P
T3 construct: expressed in transfected cells
T3 sequence (Q9JKM5 whole entry): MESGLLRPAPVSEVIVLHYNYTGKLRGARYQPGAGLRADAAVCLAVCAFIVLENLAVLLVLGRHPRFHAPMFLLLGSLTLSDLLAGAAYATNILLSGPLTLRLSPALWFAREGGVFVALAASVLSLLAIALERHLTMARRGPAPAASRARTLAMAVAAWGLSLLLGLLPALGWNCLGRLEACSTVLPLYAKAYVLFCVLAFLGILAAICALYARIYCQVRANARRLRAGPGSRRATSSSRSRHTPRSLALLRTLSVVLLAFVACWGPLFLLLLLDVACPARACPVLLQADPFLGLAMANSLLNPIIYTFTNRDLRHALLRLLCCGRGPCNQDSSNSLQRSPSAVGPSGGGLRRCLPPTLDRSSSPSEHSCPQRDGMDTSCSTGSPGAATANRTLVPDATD
Procedure: as §4, §5

EDG1 receptor, sequence (P21453 whole entry): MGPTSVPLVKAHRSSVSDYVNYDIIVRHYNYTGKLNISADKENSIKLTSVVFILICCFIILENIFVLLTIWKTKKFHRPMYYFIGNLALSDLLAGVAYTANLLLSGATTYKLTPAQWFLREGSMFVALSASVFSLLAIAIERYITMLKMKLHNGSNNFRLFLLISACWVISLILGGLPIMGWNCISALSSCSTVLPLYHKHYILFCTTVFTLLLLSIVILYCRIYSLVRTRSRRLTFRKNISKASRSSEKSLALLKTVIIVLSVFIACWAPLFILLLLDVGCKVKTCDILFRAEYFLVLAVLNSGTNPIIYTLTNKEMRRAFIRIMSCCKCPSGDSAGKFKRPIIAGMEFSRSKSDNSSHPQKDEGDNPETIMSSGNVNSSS

## CCCCCCCCCCCCC/C=C/[C@@H](O)[C@@H](N)COP(=O)(O)O [S1P, sphingosine 1-phosphate]
EDG1 receptor
  S1P-induced [Ca2+]i mobilization via EDG1: mobilize [Ca^2+]i in response to S1P
EDG5 receptor
  S1P-induced [Ca2+]i mobilization via EDG5: mobilize [Ca^2+]i in response to S1P
CHO cells; CHO cells transfected with empty vector DNA, 10, 100, 1000 nM
  S1P-induced rise in intracellular Ca2+: None of the applied S1P concentrations was capable of eliciting significant rises in intracellular Ca^2+
CHO cells; Gqi5- and G16-transfected CHO cells, no EDG receptor
  S1P-induced increase in [Ca2+]i: did not give rise to significant increases in [Ca^2+]i
Human EDG8 [1]
  EDG8-mediated increase in intracellular Ca2+ by lysophospholipid mediators: most potent activator of EDG8
Human EDG8 [1]; CHO cells, EDG8 cotransfected with Gα16 or Gαqi5, 10, 100 and 1000 nM
  S1P-induced Ca2+ mobilization via EDG8: gained the ability to mobilize Ca^2+
Human EDG8 [1]; CHO cells, EDG8 without cotransfected G protein α subunit, 10, 100 and 1000 nM
  S1P-induced [Ca2+]i release via EDG8: did not release [Ca^2+]i
EDG3 receptor
  S1P-induced [Ca2+]i mobilization via EDG3: mobilize [Ca^2+]i in response to S1P
EDG6 receptor
  S1P-induced [Ca2+]i mobilization via EDG6: failed to detect a significant Ca^2+ increase above basal levels

## CCCCCCCCCCCCC/C=C/[C@@H](O)[C@@H](N)COP(=O)([O-])OCC[N+](C)(C)C [SPC, sphingosylphosphorylcholine]
Human EDG8 [1]
  EDG8-mediated increase in intracellular Ca2+ by lysophospholipid mediators: failed to generate any significant response in concentrations up to 1 μM

## CCCCCCCCCCCCCCC[C@@H](O)[C@@H](N)COP(=O)(O)O [dHS1P, dihydro sphingosine 1-phosphate]
Human EDG8 [1]
  EDG8-mediated increase in intracellular Ca2+ by lysophospholipid mediators: evoked [Ca^2+]i increases in concentrations of 100 and 1000 nM

## Cc1ccc(C(=O)Nc2ccc(S(=O)(=O)O)c3cc(S(=O)(=O)O)cc(S(=O)(=O)O)c23)cc1NC(=O)c1cccc(NC(=O)Nc2cccc(C(=O)Nc3cc(C(=O)Nc4ccc(S(=O)(=O)O)c5cc(S(=O)(=O)O)cc(S(=O)(=O)O)c45)ccc3C)c2)c1 [suramin]
Human EDG8 [2]
  Effect on [Ca2+]i mobilization during preincubation period: did not show any effect
Rat EDG8
  Effect on [Ca2+]i mobilization during preincubation period: did not show any effect

## lysophosphatidic acid [LPA]
Human EDG8 [1]
  EDG8-mediated increase in intracellular Ca2+ by lysophospholipid mediators: evoked [Ca^2+]i increases in concentrations of 100 and 1000 nM

## lysophosphatidylcholine [LPC]
Human EDG8 [1]
  EDG8-mediated increase in intracellular Ca2+ by lysophospholipid mediators: failed to generate any significant response in concentrations up to 1 μM
